Here are results for 16 compounds from patent publication US9296734B2 (AMGEN INC., priority 2013, dated 2016).

Series [1] addresses Beta Secretase enzyme (BACE) (Homo sapiens (Human), UniProt P56817). In words: In vitro enzymatic BACE FRET assay. In kind it is biochemical. Particulars: read-out: BACE 1 FRET assay IC50. In a few lines:
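A quenched fluorophore-peptide spanning the BACE cleavage site served as substrate at 50 nM, with one-hour incubation in pH 4.2 acetate buffer containing 100 uM genapol and 10% DMSO final. Fluorescence was measured after quenching with Tris to neutral pH.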

Series [2] relates to Aβ40 in conditioned medium of cells stably expressing Amyloid Precursor Protein (APP). In words: In vitro BACE cell-based assay (Aβ40 sandwich ELISA). Particulars: Homo sapiens, read-out: HEK cell assay IC50. In short, it runs like this:
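Aβ40 in supernatants was measured by time-resolved fluorescence sandwich ELISA using pAb40 capture and biotinylated 6E10 detection, with antibody incubations at 4 °C. Stable APP cells were exposed to compounds for 24 h in a 10-point series (top dose 100 or 10 µM, 0.1% DMSO). IC50 was fitted from the concentration-response.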
For orientation: In an ELISA, binding on a coated surface is turned into a signal by an enzyme label.

The target in the next series is Cathepsin D (Cat D) (Homo sapiens (Human), UniProt P07339). In words: In vitro enzymatic Cathepsin D (Cat D) FRET assay. In kind it is biochemical. The settings on record: read-out: CatD IC50. In short, it runs like this: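 CHO-expressed recombinant Cat D cleaves a fluorophore/quencher FRET peptide (20 nM) in 0.05 M citrate pH 3.5, 5 mM CHAPS, 10% DMSO final, over 1 h. Tris addition neutralizes pH to stop the reaction; fluorescence read at excitation 500 nm, emission 580 nm.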

The subject of series [3] is Abeta 40 in CSF and brain. In words: In vivo inhibition of beta-secretase: Abeta 40 reduction in CSF and brain of the rat. The settings on record: 10 mpk (unless otherwise noted), after 4 hrs. The text has this: In Vivo Inhibition of Beta-Secretase
Several animal models, including mouse, rat, dog, and monkey, may be used to screen for inhibition of beta-secretase activity in vivo following administration of a test compound sample. Animals used in this invention can be wild type, transgenic, or gene knockout animals. […] A separate group of animals receive 2% hydroxypropyl methylcellulose, 1% Tween80 alone, containing no test compound, and serve as a vehicle-control group. At the end of the test period, animals are sacrificed and brain tissues, plasma or cerebrospinal fluid are collected. […] Homogenates are centrifuged at 355,000 g, 4° C. for 30 minutes. CSF or brain supernatants are then analyzed for the presence of A-beta peptide by specific sandwich ELISA assays based on ECL (Electrochemiluminescence) technology. For example, rat Abeta40 is measured using biotinylated-4G8 (Signet) as a capture antibody and Fab40 (an in-house antibody specific to the C-terminal of Abeta40) as a detection antibody.
Actual vehicles used: Oral: 2% HPMC, 1% Tween80, pH 2.2

For series [4] the following is noted: higher compound dose given for three months; cited from earlier work.
A further series relates to CSF Aβ40. Particulars: healthy individuals, 36 h post-dose, cited from earlier work.
Where [5] appears, read: HEK293, average IC50, HEK cells.
Where [6] appears, read: Abeta 40, rat CSF, read-out: % reduction of rat CSF levels at 10 pmk.
The mark [7] stands for this setting: Abeta 40, rat brain, read-out: % reduction of rat brain levels at 10 mpk.
Setting [8] is: average IC50, BACE enzyme assay.
Where [9] appears, read: HEK293, average IC50, HEK cell assay.
Where [10] appears, read: average IC50, cathepsin D enzyme assay.

The structures appear in SMILES notation. Read-outs that look alike come from different tables or passages of the source.

Chain of Cathepsin D (Cat D) (P07339 65-412, species assumed): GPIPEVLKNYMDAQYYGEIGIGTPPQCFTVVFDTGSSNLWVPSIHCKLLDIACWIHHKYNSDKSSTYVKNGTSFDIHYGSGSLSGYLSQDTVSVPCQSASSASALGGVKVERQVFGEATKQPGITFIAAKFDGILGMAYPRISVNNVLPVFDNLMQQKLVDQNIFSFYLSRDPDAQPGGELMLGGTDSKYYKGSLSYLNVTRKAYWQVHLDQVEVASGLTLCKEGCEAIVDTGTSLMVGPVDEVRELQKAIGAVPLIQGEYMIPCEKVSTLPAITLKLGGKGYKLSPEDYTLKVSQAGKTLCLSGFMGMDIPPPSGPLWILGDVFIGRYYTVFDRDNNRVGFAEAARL
Chain of Beta Secretase enzyme (BACE) (P56817 46-501): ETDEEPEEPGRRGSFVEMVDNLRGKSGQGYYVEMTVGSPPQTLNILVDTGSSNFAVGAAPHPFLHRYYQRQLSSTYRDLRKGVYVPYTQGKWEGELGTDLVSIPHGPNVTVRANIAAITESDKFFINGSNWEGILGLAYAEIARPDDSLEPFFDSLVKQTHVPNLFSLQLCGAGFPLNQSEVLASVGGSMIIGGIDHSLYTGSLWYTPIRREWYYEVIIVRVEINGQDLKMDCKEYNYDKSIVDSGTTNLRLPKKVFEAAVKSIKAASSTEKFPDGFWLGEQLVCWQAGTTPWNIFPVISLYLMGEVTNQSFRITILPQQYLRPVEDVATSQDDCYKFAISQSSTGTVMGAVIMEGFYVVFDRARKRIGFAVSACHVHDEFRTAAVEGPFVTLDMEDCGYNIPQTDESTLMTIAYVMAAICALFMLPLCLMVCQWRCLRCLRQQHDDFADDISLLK

`NC1=N[C@](CF)(c2cc(NC(=O)c3ccc(Cl)cn3)ccc2F)C[C@@H](C(F)(F)F)O1` [Example 3, N-(3-((4S,6S)-2-amino-4-(fluoromethyl)-6-(trifluoromethyl)-5,6-dihydro-4H-1,3-oxazin-4-yl)-4-fluorophenyl)-5-chloropicolinamide]: the IC50 is 0.018 µM in series [1] (average IC50), 0.032 µM in series [2] (setting [5]) and above 400 µM at Cathepsin D (Cat D) (average IC50). Also, the inhibition in vivo at 10 mg/kg in series [3] (setting [6]) amounted to 72%; in series [3] (setting [7]) it was 58%.
With `N#Cc1cnc(C(=O)Nc2ccc(F)c([C@]3(CF)C[C@@H](C(F)(F)F)OC(N)=N3)c2)c(Cl)c1` [Example 32, N-(3-((4S,6S)-2-amino-4-(fluoromethyl)-6-(trifluoromethyl)-5,6-dihydro-4H-1,3-oxazin-4-yl)-4-fluorophenyl)-3-chloro-5-cyano-2-pyridinecarboxamide], the 50% inhibitory concentration (IC50) in series [1] (average IC50) was 0.0285 µM; in series [2] (setting [5]), 0.0544 µM; on Cathepsin D (Cat D) (average IC50), above 400 µM. Further, the inhibition in vivo at 10 mg/kg is 21% in series [3] (setting [6]) and -3% in series [3] (setting [7]).
The like results for `COc1cnc(C(=O)Nc2ccc(F)c([C@]3(CF)C[C@@H](C(F)(F)F)OC(N)=N3)c2)c(Cl)c1` [Example 50, N-(3-((4S,6S)-2-amino-4-(fluoromethyl)-6-(trifluoromethyl)-5,6-dihydro-4H-1,3-oxazin-4-yl)-4-fluorophenyl)-3-chloro-5-methoxypicolinamide] were, in that order, 0.0238 µM, 0.0265 µM, above 400 µM, 50% and 22%.
As to `C[C@@]1(c2cc(NC(=O)c3ccc(Cl)cn3)cnc2F)C[C@@H](C(F)(F)F)OC(N)=N1` [Example 60, N-(5-((4S,6S)-2-amino-4-methyl-6-(trifluoromethyl)-5,6-dihydro-4H-1,3-oxazin-4-yl)-6-fluoropyridin-3-yl)-5-chloropicolinamide], the concentration for half-maximal inhibition (IC50) in series [1] (average IC50) was 0.0528 µM; in series [2] (setting [5]), 0.0135 µM; at Cathepsin D (Cat D) (average IC50), above 400 µM. Besides, the inhibition in vivo at 10 mg/kg in series [3] (setting [6]) was 79%; in series [3] (setting [7]), 72%.
Take `C[C@@]1(c2nc(NC(=O)c3ccc(C#N)cn3)ccc2F)C[C@@H](C(F)(F)F)OC(N)=N1` [Example 79, N-(6-((4S,6S)-2-amino-4-methyl-6-(trifluoromethyl)-5,6-dihydro-4H-1,3-oxazin-4-yl)-5-fluoropyridin-2-yl)-5-cyanopicolinamide]: the half-maximal inhibitory concentration (IC50) in series [1] (average IC50) was 0.0304 µM; in series [2] (setting [5]), 0.0115 µM; at Cathepsin D (Cat D) (average IC50), above 400 µM. Moreover, the figures for the inhibition in vivo at 10 mg/kg in series [3] (setting [6]) and in series [3] (setting [7]) were 83% and 79%, respectively.
For the compound `NC1=N[C@](CF)(c2nc(NC(=O)c3nn(C(F)F)cc3Cl)ccc2F)C[C@@H](C(F)(F)F)O1` [Example 135, N-(6-((4S,6S)-2-amino-4-(fluoromethyl)-6-(trifluoromethyl)-5,6-dihydro-4H-1,3-oxazin-4-yl)-5-fluoropyridin-2-yl)-4-chloro-1-(difluoromethyl)-1H-pyrazole-3-carboxamide], the concentration for half-maximal inhibition (IC50) in series [1] (setting [8]) was found to be 0.052 µM; in series [2] (setting [9]) it was 0.031 µM; at Cathepsin D (Cat D) (setting [10]), 1170 µM. Moreover, the inhibition in vivo at 10 mg/kg in series [3] (setting [6]) was determined as 64%; in series [3] (setting [7]), 55%.
The like results for `C#CCOc1cnc(C(=O)Nc2cc(F)c(F)c([C@]3(CF)C[C@@H](C(F)(F)F)OC(N)=N3)c2)cn1` [Example 154, N-(3-((4S,6S)-2-amino-4-(fluoromethyl)-6-(trifluoromethyl)-5,6-dihydro-4H-1,3-oxazin-4-yl)-4,5-difluorophenyl)-5-(prop-2-yn-1-yloxy)pyrazine-2-carboxamide] were, in that order, 0.0014 µM, 0.0096 µM, above 400 µM, 67% and 71%.
Taken in the same sequence, the figures for `CC#CCOc1cnc(C(=O)Nc2cc(F)c(F)c([C@]3(CF)C[C@@H](C(F)(F)F)OC(N)=N3)c2)cn1` [Example 155, N-(3-((4S,6S)-2-amino-4-(fluoromethyl)-6-(trifluoromethyl)-5,6-dihydro-4H-1,3-oxazin-4-yl)-4,5-difluorophenyl)-5-(but-2-yn-1-yloxy)pyrazine-2-carboxamide] were 0.00087 µM, 0.00367 µM, above 400 µM, 26% and 11%.
In the case of `C[C@@]1(c2cc(NC(=O)c3ccc(Cl)cn3)cc(F)c2F)C[C@@H](C(F)(F)F)OC(N)=N1` [Example 164, N-(3-((4S,6S)-2-amino-4-methyl-6-(trifluoromethyl)-5,6-dihydro-4H-1,3-oxazin-4-yl)-4,5-difluorophenyl)-5-chloropicolinamide], the values for the 50% inhibitory concentration (IC50) (in series [1] (setting [8]); in series [2] (setting [9]); at Cathepsin D (Cat D) (setting [10])) were 0.024 µM, 0.0052 µM and 1350 µM, respectively. The inhibition in vivo at 10 mg/kg in series [3] (setting [6]) was determined as 77%; in series [3] (setting [7]), 75%.
The like results for `COc1cnc(C(=O)Nc2cc(F)c(F)c([C@]3(C)C[C@@H](C(F)(F)F)OC(N)=N3)c2)cn1` [Example 165, N-(3-((4S,6S)-2-amino-4-methyl-6-(trifluoromethyl)-5,6-dihydro-4H-1,3-oxazin-4-yl)-4,5-difluorophenyl)-5-methoxypyrazine-2-carboxamide] were, in that order, 0.078 µM, 0.0098 µM, 5350 µM, 75% and 76%.
Taken in the same sequence, the figures for `COc1cnc(C(=O)Nc2cc(F)c(F)c([C@]3(C)C[C@@H](C(F)(F)F)OC(N)=N3)c2)c(Cl)c1` [Example 169, N-(3-((4S,6S)-2-amino-4-methyl-6-(trifluoromethyl)-5,6-dihydro-4H-1,3-oxazin-4-yl)-4,5-difluorophenyl)-3-chloro-5-methoxypicolinamide] were 0.037 µM, 0.0089 µM, above 400 µM, 48% and 46%.
For the compound `Cc1cc(C(F)F)cnc1C(=O)Nc1cc(F)c(F)c([C@]2(C)C[C@@H](C(F)(F)F)OC(N)=N2)c1` [Example 171, N-(3-((4S,6S)-2-amino-4-methyl-6-(trifluoromethyl)-5,6-dihydro-4H-1,3-oxazin-4-yl)-4,5-difluorophenyl)-5-(difluoromethyl)-3-methylpicolinamide], the IC50 in series [1] (setting [8]) was 0.043 µM; in series [2] (setting [9]), 0.017 µM; on Cathepsin D (Cat D) (setting [10]), 2060 µM. Further, the inhibition in vivo at 10 mg/kg in series [3] (setting [6]) came to 25%; in series [3] (setting [7]), 10%.
With `Cc1cc(NC(=O)c2ccc(Cl)cn2)cc([C@]2(CF)C[C@@H](C(F)(F)F)OC(N)=N2)c1F` [Example 224, N-(3-((4S,6S)-2-amino-4-(fluoromethyl)-6-(trifluoromethyl)-5,6-dihydro-4H-1,3-oxazin-4-yl)-4-fluoro-5-methylphenyl)-5-chloropicolinamide], the IC50 worked out at 0.013 µM in series [1] (average); 0.007 µM in series [2] (HEK293, HEK cells, average); 515 µM at Cathepsin D (Cat D) (average). Moreover, the values for the inhibition in vivo at 10 mg/kg in series [3] (setting [6]) and in series [3] (setting [7]) were 62% and 51%, respectively.
The like results for `COc1cnc(C(=O)Nc2cc(C)c(F)c([C@]3(CF)C[C@@H](C(F)(F)F)OC(N)=N3)c2)cn1` [Example 227, N-(3-((4S,6S)-2-amino-4-(fluoromethyl)-6-(trifluoromethyl)-5,6-dihydro-4H-1,3-oxazin-4-yl)-4-fluoro-5-methylphenyl)-5-methoxypyrazine-2-carboxamide] were, in that order, 0.03 µM, 0.023 µM, above 400 µM, 69% and 65%.
On to `C[C@@]1(c2cc(-c3cncnc3)c(F)cc2F)CCSC(N)=N1` [LY 2811376], for which, in series [4], the rat toxicology finding entry was “damaged the pigment epithelium of the rat's eye”.
As to `CN1C(=N)N[C@](C)(c2cc(NC(=O)c3ccc(F)cn3)ccc2F)CS1(=O)=O` [MK-8931], the “reduction of CSF Aβ40 concentrations” value in the series on CSF Aβ40 (single dose of 100 mg) was 75%; in the series on CSF Aβ40 (single dose of 550 mg), 92%.

The term IC50 denotes the concentration needed to halve the response being measured.
